Source: PMC9343874, “Comparative Pharmacokinetics of Cinobufacini Capsule and Injection by UPLC-MS/MS” (Frontiers in Pharmacology, 2022)
Read-outs that look alike come from different tables or passages of the source.

Assays:
[1] = Pharmacokinetic study in rats after oral administration of cinobufacini capsule (UPLC-MS/MS of plasma); type: in vivo, rat; conditions: for AUC(0-inf) / AUC(0-t) / Cmax / Tmax / CL/F / MRT last / MRT inf / half-life / Vd/F: male, Sprague-Dawley, in vivo, rat plasma, mean ± SD, n = 6; for CL/F: read-out: CLz/F (converted); for MRT last: read-out: MRT0-t; for MRT inf: read-out: MRT0-∞; for half-life: read-out: T1/2z (converted); for Vd/F: read-out: Vz/F
Procedure: Male Sprague–Dawley rats (weighing 200–220 g) of SPF grade were offered by Sippr/BK laboratory Animal, Corp., Ltd. (Shanghai, China) and fed in the Laboratory Animal Center of the Shanghai University of Traditional Chinese Medicine. All the rats were kept under environmentally controlled conditions with constant temperature (22–24°C) and humidity (60–65%). The animal experiment program in the present research was approved by the Animal Committee of the Shanghai University of Traditional Chinese Medicine (PZSHUTCM210618012).
An Agilent 1290 liquid chromatographic system includes a G4220A quaternary pump, a G1326C column incubator, a G4226A automatic sampler, and a G1330B degasser. The column temperature was set to 35°C. A measure of 5 µL of samples were separated in an Agilent SB-C18 column (2.1 mm ×50 mm, 1.8 μm) and eluted at 0.3 ml/min, followed by gradient elution with water (0.1% V/V formic acid) (A) and acetonitrile (B) (0–1 min, 20%–20% B; 1–3.5 min, 20%–80% B; 4–4.1 min, 80%-20% B; 4.1–6 min, 20% B). The total run time was 6 minutes.
An Agilent 1290 Infinity series UPLC system was combined with an Agilent 6460 series triple quadrupole mass spectrometer (Agilent Technologies, Santa Clara, CA, United States) to quantify all 13 analytes in an ESI-positive ionization mode. Quantitative analysis was performed in an MRM mode. The mass spectrum conditions were as follows: capillary voltage, 4000V; drying gas (N2), gas flow rate: 10 L/min; sprayer, 30 psi; gas temperature 350°C; The delta EMV (+) 200 V; collision gas (N2); dwell time, 25 ms. Agilent’s MassHunter Workstation software was used for data collection, peak area calculation, and quantitative analysis.
A measure of 50 µL of the plasma sample was mixed with 10 µL of the internal standard solution (345 ng/ml) in a 1.5-ml centrifuge tube and vortexed for 5 min. The samples were extracted by 500 µL of ethyl acetate for 5 min and centrifuged at 4°C for 10 min (18000 rpm). All the supernatants were collected into another 1.5-ml centrifuge tube, dried under a gentle stream of nitrogen at 37°C, and then added with 50 µL of 80% methanol for resolution. The resolution samples were centrifuged at 4°C for 10 min (18000 rpm), and 5 µL supernatant was extracted and injected for analysis.
Twenty-four male Sprague–Dawley rats (weigh 200–220 g) were divided into four groups with six rats in each group randomly, including three capsule groups at three different doses and one injection group. In the instructions for cinobufacini capsule and injection, the clinical dosage for adults is 2 g per 70 kg orally and 20 ml per 70 kg intravenously, converting to rat doses of 180 mg/kg and 1.8 ml/kg, respectively.
In the pre-experiments, we compared cinobufacini capsule of 180 mg/kg (one-time clinical dose) and 900 mg/kg (five times of clinical dose) and Cinobufacini injection of 1.8 ml/kg, but concentrations of some compounds in plasma were too low and difficult to be quantified. […] The experimental rats were led to fast the night and were free to get access to water for 12 h before the pharmacokinetic study. After administration, blood samples (approximately 150 μL) of rats were collected via retro-orbital sinus into heparinized centrifuge tubes at 0.05, 0.083, 0.25, 0.5, 0.75, 1, 2, 4, 6, 8, and 10 h. After centrifugation at 5,000 rpm for 10 min, the plasma was transferred to 1.5-ml polypropylene tubes and stored at −80°C until UPLC-MS/MS analysis.
GraphPad Prism software (version 8.0.2) was used to draw the mean plasma concentration–time curves of all analytes. The pharmacokinetic parameters were calculated by DAS 3.2.8 software. Meanwhile, the pharmacokinetic data on rats were presented as mean ± standard deviation (SD). Differences of pharmacokinetic parameters between groups were analyzed by the t-test using SPSS software (version 26.0). Differences were considered significant statistically when the p-values were <0.05 and very significant statistically when the p-values were <0.01.

[2] = Stability of analytes in rat plasma QC samples under storage conditions; type: physicochemical; conditions: n = 6; for Stability during 24 h at 4°C, RE: post-treatment storage in autosampler; for −80°C for 30 days, RE / Three freeze–thaw cycles, RE: rat plasma; for −80°C for 30 days, RE: long-term; for Three freeze–thaw cycles, RE: −80°C to room temperature
Procedure: The stability of QC samples in six replicates at three concentrations (low, medium, and high levels) was analyzed under different storage conditions: the post-treatment stability was analyzed after storage in an autosampler (4°C) for 24 h. Freeze–thaw stability was investigated after three freeze–thaw cycles (−80°C to room temperature as one cycle). Long-term stability was assessed by analyzing QC samples kept at −80°C for 30 days. The concentrations of the analytes in the plasma samples and the QC samples were calculated by the calibration standard curve prepared each day. The stabilities of analytes were acceptable when the accuracy (RE, %) and precision (RSD, %) of all QC samples in all storage conditions were within ±15% compared to nominal concentrations.

[3] = oral cinobufacini capsule 0.9 g/kg (low)
[4] = oral cinobufacini capsule 1.8 g/kg (medium)
[5] = oral cinobufacini capsule 3.6 g/kg (high)
[6] = high QC level (249.58–250.28 ng/ml)
[7] = medium QC level (49.92–50.06 ng/ml)

Row | SMILES | AUC(0-inf) [1, 3] [ng·h/mL] | AUC(0-t) [1, 3] [ng·h/mL] | Cmax [1, 3] [ng/mL] | Tmax [1, 3] [min] | CL/F [1, 3] [mL/min/kg] | MRT last [1, 3] [min] | MRT inf [1, 3] [min] | half-life [1, 3] [min] | Vd/F [1, 3] [L/kg] | AUC(0-inf) [1, 4] [ng·h/mL] | AUC(0-t) [1, 4] [ng·h/mL] | Cmax [1, 4] [ng/mL] | Tmax [1, 4] [min] | CL/F [1, 4] [mL/min/kg] | MRT last [1, 4] [min] | MRT inf [1, 4] [min] | half-life [1, 4] [min] | Vd/F [1, 4] [L/kg] | AUC(0-inf) [1, 5] [ng·h/mL] | AUC(0-t) [1, 5] [ng·h/mL] | other results
1 | C[C@]12CC[C@H](O)C[C@H]1CC[C@@H]1[C@@H]2CC[C@]2(C)[C@@H](c3ccc(=O)oc3)[C@@H](O)[C@H]3O[C@]132 [DCG, desacetylcinobufagin] | 67 ± 15.3 | 61.7 ± 7.8 | 17.2 ± 4.77 | 49.8 ± 12 | 13 | 237 ± 43.8 | 284 ± 93.6 | 73.2 ± 48.6 | 2.8 ± 1.71 | 112 ± 14.9 | 100 ± 12.4 | 35.6 ± 2.59 | 53.4 ± 7.8 | 12 | 180 ± 37.8 | 292 ± 27.6 | 286 ± 31.2 | 5.62 ± 0.68 | 150 ± 30 | 148 ± 30.2 | Cmax [1, 5]: 56.6 ± 7.79 ng/mL; Tmax [1, 5]: 49.2 ± 7.2 min; CL/F [1, 5]: 17.2 mL/min/kg; MRT last [1, 5]: 146 ± 24.6 min; MRT inf [1, 5]: 159 ± 26.4 min; half-life [1, 5]: 125 ± 36 min; Vd/F [1, 5]: 2.79 ± 1.51 L/kg; time to reach maximum plasma concentration (Cmax) ([1]; rats, after gavage administration of cinobufacini capsule): ≤ 60 min; Stability during 24 h at 4°C, RE [2, 6]: 4.6%; Stability during 24 h at 4°C, RE ([2]; low QC level (4.99–5.00 ng/ml)): 1.5%; Stability during 24 h at 4°C, RE [2, 7]: 6.7%; −80°C for 30 days, RE [2, 6]: −3.8%; −80°C for 30 days, RE ([2]; low QC level (4.99–5.00 ng/ml)): 1.9%; −80°C for 30 days, RE [2, 7]: 3.8%; Three freeze–thaw cycles, RE [2, 6]: −2.8%; Three freeze–thaw cycles, RE ([2]; low QC level (4.99–5.00 ng/ml)): 3.0%; Three freeze–thaw cycles, RE [2, 7]: 4.9%
2 | C[C@]12CC[C@H](O)C[C@@]1(O)CC[C@@H]1[C@@H]2CC[C@]2(C)[C@@H](c3ccc(=O)oc3)[C@@H](O)[C@H]3O[C@]132 [DCT, desacetylcinobufotalin] | 13.4 ± 3.76 | 13 ± 3.69 | 6.94 ± 5.35 | 52.2 ± 37.8 | 66 | 152 ± 59.4 | 177 ± 107 | 49.8 ± 15 | 5.16 ± 2.57 | 35.7 ± 12.1 | 34.2 ± 10.4 | 12.3 ± 3.11 | 36.6 ± 19.2 | 50.3 | 161 ± 52.8 | 186 ± 55.2 | 118 ± 81.6 | 8.27 ± 5.18 | 62.7 ± 16.8 | 61.2 ± 16.1 | Cmax [1, 5]: 22.2 ± 5.19 ng/mL; Tmax [1, 5]: 23.4 ± 12 min; CL/F [1, 5]: 42.5 mL/min/kg; MRT last [1, 5]: 137 ± 22.2 min; MRT inf [1, 5]: 152 ± 34.8 min; half-life [1, 5]: 91.8 ± 49.2 min; Vd/F [1, 5]: 5.59 ± 3.29 L/kg; Stability during 24 h at 4°C, RE [2, 6]: 9.6%; Stability during 24 h at 4°C, RE ([2]; low QC level (4.99–5.00 ng/ml)): 11.4%; Stability during 24 h at 4°C, RE [2, 7]: 7.3%; −80°C for 30 days, RE [2, 6]: 8.7%; −80°C for 30 days, RE ([2]; low QC level (4.99–5.00 ng/ml)): 2.4%; −80°C for 30 days, RE [2, 7]: 12.7%; Three freeze–thaw cycles, RE [2, 6]: 7.3%; Three freeze–thaw cycles, RE ([2]; low QC level (4.99–5.00 ng/ml)): 3.7%; Three freeze–thaw cycles, RE [2, 7]: 12.1%
3 | C[C@]12CC[C@H](O)C[C@H]1CC[C@@H]1[C@@H]2[C@H](O)C[C@]2(C)[C@@H](c3ccc(=O)oc3)CC[C@]12O [GBL, gamabufotalin] | 13.6 ± 3.08 | 10.8 ± 2.45 | 13.3 ± 5.28 | 15 | 150 | 24.6 ± 6.6 | 38.4 ± 9.6 | 22.2 | 4.75 ± 0.98 | 23.4 ± 15 | 21.9 ± 11.6 | 21.5 ± 7.57 | 27.6 ± 13.8 | 210 | 43.8 ± 6 | 47.4 ± 13.2 | 16.8 ± 15.6 | 3.03 ± 2.02 | 54.5 ± 12.4 | 54 ± 12 | Cmax [1, 5]: 49.5 ± 10.9 ng/mL; Tmax [1, 5]: 21.6 ± 12 min; CL/F [1, 5]: 153 mL/min/kg; MRT last [1, 5]: 49.8 ± 7.2 min; MRT inf [1, 5]: 51.6 ± 8.4 min; half-life [1, 5]: 18 ± 9.6 min; Vd/F [1, 5]: 3.74 ± 1.66 L/kg; Stability during 24 h at 4°C, RE [2, 6]: 5.4%; Stability during 24 h at 4°C, RE ([2]; low QC level (4.99–5.00 ng/ml)): 12.0%; Stability during 24 h at 4°C, RE [2, 7]: 10.9%; −80°C for 30 days, RE [2, 6]: −4.9%; −80°C for 30 days, RE ([2]; low QC level (4.99–5.00 ng/ml)): 8.3%; −80°C for 30 days, RE [2, 7]: 12.4%; Three freeze–thaw cycles, RE [2, 6]: −0.6%; Three freeze–thaw cycles, RE ([2]; low QC level (4.99–5.00 ng/ml)): 13.2%; Three freeze–thaw cycles, RE [2, 7]: 10.7%
